Structures can show the parent of a compound that is named as a salt.
How the values were obtained:
[1] = target: T1, Aβx-42 (Homo sapiens, UniProt P05067); experiment: Brain extract sandwich ELISA in APP/PS1 mice, Aβx-42; format: in vivo, mouse; settings: for content of TBS-soluble Aβx-42 / total level of TBS soluble Aβx-42 after 0.5 M Gdn-HCl: seven days; for content of TBS-soluble Aβx-42: APP/PS1 mice; for total level of TBS soluble Aβx-42 after 0.5 M Gdn-HCl: guanidine 37° C. 30 min
T1 construct: commercially available kits BNT77/BA27 for Aβ40 or BNT77/BC05 for Aβx-42; from tissue; host or cells: brain extracts (TBS, Triton, SDS) or hippocampal interstitial fluid of APPswe/PS1dE9 mice
T1 sequence (P05067 672-713 limits assumed): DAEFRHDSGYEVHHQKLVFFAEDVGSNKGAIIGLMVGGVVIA

[2] = cited from earlier work
[3] = test system: N- and C-terminal fragments of Gaussian luciferase conjugated to Aβ42; experiment: Aβ split-luciferase complementation assay, oligomer formation in HEK293 cells; format: cell-based
Description: (§1) Aβ agglomeration and oligomer dissociation assays were performed in vitro using an Aβ splitluciferase complementation assay. […] The conditioned media from these cells was collected, 10 nM of coelenterazine was added and the luciferase activity was measured using a Wallac 1420 (PerkinElmer). […] The luciferase activity was measured.

[4] = target: T2, Aβ42 (Homo sapiens, UniProt P05067); experiment: Aβ42 fibril formation by transmission electron microscopy; format: biochemical
T2 construct: Aberrant Aβ peptide isoforms that are 40 or 42 amino acids in length (Aβ-40/42); host or cells: synthetic
T2 sequence (P05067 672-713 limits assumed): as above
Description: The anti-fibrillogenic properties of cromolyn was confirmed by performing TEM analysis. […] After incubation for 48 hours, 15 μl or the Aβ42 fibril solution were adsorbed on carbon-coated EM grids for 20 min. at room temperature. After 3 washes in sterile PBS and ddH2O, the grids were allowed to dry before negative staining with 2% (w/v) uranyl-acetate water, two times for 8 min. Each grid was then briefly washed in degassed ddH2O, air dried, and imaged by TEM at a magnification of 150,000×.

[5] = test system: amyloid deposits; experiment: Immunohistochemical amyloid burden and density of amyloid deposits in APP/PS1 mice; format: in vivo, mouse; settings: one week of treatment
[6] = test system: APP/PS1 transgenic mice; experiment: Morris water maze in APP/PS1 transgenic mice; format: in vivo, mouse; settings: versus mock treatment
[7] = test system: Aβ peptides; experiment: Binding to Aβ peptides
[8] = test system: ISF Aβx-42 and Aβ oligomers; experiment: In vivo microdialysis of ISF in APP/PS1 mice, Aβx-42 and Aβ oligomers; parameters: species or system mouse; settings: 3.15 mg/kg i.p. daily for one week; compared with ISF Aβx-40
[9] = test system: Aβ40 and Aβ42; experiment: Thioflavin T Aβ fibrillization assay; settings: 5, 50, 5000 nM, one hour incubation at 37° C.
Description: In vitro amyloid fibrillization assay was performed using synthetic Aβ peptides (rPeptide, Bogart GA) as well as thioflavin-T (Sigma-Aldrich), respectively dissolved in DMSO and in methanol.
DMSO was used as control. The progression of fibrillization was followed every 10 min. for 60 min. at room temperature by measuring the fluorescence intensity at excitation and emission wavelengths of 450 nm and 480 nm, respectively, using an M3 microplate reader. The results were normalized for background using fluorescent reading at time 0 by the software provided by the M3 plate reader.

[10] = test system: monomeric Aβ; experiment: Immunoblot of 4 kDa Aβ band (6E10, 82E1) in TBS soluble extracts of APP/PS1 mice; format: in vivo, mouse; settings: one week i.p. treatment
[11] = test system: pre-existing Aβ42 oligomers (Gluc halves fused with Aβ42); experiment: Oligomer dissociation assay, split-luciferase, conditioned media; format: biochemical; settings: added to conditioned media, 10 nM, 10 μM or 1 mM, 12 hours
Description: as §1

[12] = target: T3, Aβx-40 (Homo sapiens, UniProt P05067); experiment: Brain extract sandwich ELISA in APP/PS1 mice, Aβx-40; format: in vivo, mouse; settings: for content of TBS-soluble Aβx-40 / total level of TBS soluble Aβx-40 after 0.5 M Gdn-HCl: seven days; for content of TBS-soluble Aβx-40: APP/PS1 mice; for total level of TBS soluble Aβx-40 after 0.5 M Gdn-HCl: guanidine 37° C. 30 min
T3 construct: commercially available kits BNT77/BA27 for Aβ40 or BNT77/BC05 for Aβx-42; from tissue; host or cells: brain extracts (TBS, Triton, SDS) or hippocampal interstitial fluid of APPswe/PS1dE9 mice
T3 sequence (P05067 672-711 limits assumed): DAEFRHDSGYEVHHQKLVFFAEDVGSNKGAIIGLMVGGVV

[13] = test system: Aβ oligomers; experiment: 82E1/82E1 ELISA of Aβ oligomers in TBS soluble brain fraction of APP/PS1 mice; format: in vivo, mouse; settings: one week i.p. treatment
[14] = target: T4, ISF Aβx-40 (Homo sapiens, UniProt P05067); experiment: In vivo microdialysis of ISF in APP/PS1 mice, Aβx-40; parameters: species or system mouse; settings: 3.15 mg/kg i.p. daily for one week
T4 construct: commercially available kits BNT77/BA27 for Aβ40 or BNT77/BC05 for Aβx-42; from tissue; host or cells: brain extracts (TBS, Triton, SDS) or hippocampal interstitial fluid of APPswe/PS1dE9 mice
T4 sequence (P05067 672-711 limits assumed): as above

[15] = test system: ISF Aβ; experiment: ISF Aβ half-life by reverse microdialysis with Compound E in APP/PS1 mice; format: in vivo, mouse; settings: 3.15 mg/kg
Description: The contralateral hippocampus was used for this experiment. […] Aβ levels within the ISF were measured for an additional 5 hours. The single logarithmic plot was made from Aβ levels and extrapolated the half-life of ISF Aβ.

[16] = clinical; settings: human, in vivo, po, 10 mg, average Cmax of ibuprofen in the CSF
Description: The evaluation of the plasma and CSF levels in 24 human subjects under an IND and a phase I study followed a 10 mg or 20 mg oral administration to healthy volunteers (age 55-79).

[17] = 3.15 mg/kg, versus PBS controls

In the case of `O=C(O)c1cc(=O)c2c(OCC(O)COc3cccc4oc(C(=O)O)cc(=O)c34)cccc2o1` [cromolyn sodium, disodium salt of 5,5′-[(2-hydroxytrimethylene)dioxy]bis [4-oxo-4H-1-benzopyran-2-carboxylate]], the “content of TBS-soluble Aβx-42” value ([1]; 2.1 mg/kg i.p. daily) is reported as 40.9%, the “total level of TBS soluble Aβx-42 after 0.5 M Gdn-HCl” value ([1]; 2.1 mg/kg) is reported as 63.3% and the “content of TBS-soluble Aβx-42” value ([1]; 3.15 mg/kg i.p. daily) is reported as 46.2%. For the same compound, the “total level of TBS soluble Aβx-42 after 0.5 M Gdn-HCl” value ([1]; 3.15 mg/kg) was 76.1%, the “amount of Aβx-42 extracted in 2% SDS” value [1, 17] was “significantly decreased” and the “amount of Aβx-42 extracted in 2% triton” value [1, 17] was “significantly decreased”. For the same compound, the water solubility [2] was “water soluble”, the “concentration at which the effect on luminescence could be detected” value [3] was “above 10 μM” and the “luminescence signal, oligomer formation” value ([3]; 10 nM, 10 μM or 1 mM, 12 hours) was “significantly decreased the luminescence signal in a dose-dependent manner”. For the same compound, the “formation of Aβ42 fibrils, TEM” value ([4]; 500 nM) was “inhibited”, the “formation of Aβ42 fibrils, TEM” value ([4]; lower concentration (50 nM)) was “no effect was detected” and the “amyloid burden and density of amyloid deposits” value [5] was “remained unaffected”. For the same compound, the “memory capabilities in the Morris water maze tests” value [6] was “prevented lowering memory capabilities”, the “binding to Aβ peptides” value [7] was “binds to Aβ peptides” and the “ISF Aβx-42 and Aβ oligomers” value [8] was “performed similarly”. For the same compound, the “Aβ40 and Aβ42 fibrillization, thioflavin T” value [9] was “inhibited Aβ fibril formation in vitro at a nanomolar concentration”, the “amounts of monomeric Aβ, 4 kDa band” value [10] was “decreased” and the “luminescence signal, pre-existing oligomers” value [11] was “failed to impact the luminescence signal”. For the same compound, the “content of TBS-soluble Aβx-40” value ([12]; 2.1 mg/kg i.p. daily) was 39.5%, the “total level of TBS soluble Aβx-40 after 0.5 M Gdn-HCl” value ([12]; 2.1 mg/kg) was 50.7% and the “content of TBS-soluble Aβx-40” value ([12]; 3.15 mg/kg i.p. daily) was 37.1%. The “total level of TBS soluble Aβx-40 after 0.5 M Gdn-HCl” value ([12]; 3.15 mg/kg) was 44.6%, the “amount of Aβx-40 extracted in 2% SDS” value [12, 17] was “significantly decreased” and the “amount of Aβx-40 extracted in 2% triton” value [12, 17] was “significantly decreased”. For the same compound, the “levels of oligomeric aggregates, 82E1/82E1 ELISA” value [13] was “no changes”, the “ISF Aβx-40 level” value [14] was 283 pM and the “decrease of ISF Aβx-40 level” value [14] was 30%. For the same compound, the “shortening of half-life of ISF Aβ versus control” value [15] was “about 50%” and the “time after Compound E at which ISF Aβ levels started to decrease” value [15] was 2 h.
For `CC(C)Cc1ccc(C(C)C(=O)O)cc1` (racemic) [ibuprofen, (RS)-2-(4-(2-methylpropyl)phenyl) propanoic acid], the “solubility in organic solvents such as ethanol and acetone” value [2] is listed as “readily soluble”, the solubility in water [2] is listed as less than 1 mg/mL and the Cmax [16] is listed as 3.94 ± 1.29 ng/mL.
